pIC50: −log10 of the molar value.
Each molecule was assayed against Human Factor D (Homo sapiens (Human), UniProt P00746) (assay: Human Factor D Assay). Settings: Factor D inhibition, assay of Example 10; read-out: IC5 (Stars).
Type: biochemical
Procedure, shortened: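 Serum-purified Factor D (80 nM final) preincubated 5 min at room temperature with compound in 50 mM Tris, 1 M NaCl, pH 7.5. Z-L-Lys-SBz and DTNB added at 100 μM each; A405 followed every 30 s for 30 min. IC50 from nonlinear regression of rates versus concentration.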

Chain of Human Factor D (P00746 26-253): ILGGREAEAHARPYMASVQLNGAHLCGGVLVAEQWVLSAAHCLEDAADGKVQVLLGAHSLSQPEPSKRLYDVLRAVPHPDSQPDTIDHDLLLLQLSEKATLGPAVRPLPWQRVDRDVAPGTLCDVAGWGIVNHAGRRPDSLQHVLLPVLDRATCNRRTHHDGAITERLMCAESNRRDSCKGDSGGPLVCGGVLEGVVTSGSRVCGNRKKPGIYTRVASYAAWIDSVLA

| Structure (SMILES) | pIC50 |
| --- | --- |
| CCc1nn(CC(=O)N2C[C@H](F)C[C@H]2C(=O)Nc2cccc(Br)n2)c2ccc(-c3cnc(C)nc3)cc12 [Compound 445, (2S,4R)-N-(6-bromopyridin-2-yl)-1-(2-(3-ethyl-5-(2-methylpyrimidin-5-yl)-1H-indazol-1-yl)acetyl)-4-fluoropyrrolidine-2-carboxamide] | 5.00 to 6.00 |
| CC(=O)c1nn(CC(=O)N2C[C@H](F)C[C@H]2C(=O)N(C)c2cccc(Br)n2)c2ccc(-c3cnc(C)nc3)cc12 [Compound 446, (2S,4R)-1-(2-(3-acetyl-5-(2-methylpyrimidin-5-yl)-1H-indazol-1-yl)acetyl)-N-(6-bromopyridin-2-yl)-4-fluoro-N-methylpyrrolidine-2-carboxamide] | < 5.00 |
| CC(=O)c1nn(CC(=O)N2[C@H](C(=O)Nc3cncc(Br)n3)C[C@@]3(Cc4nc(C)no4)C[C@@H]23)c2c(C)cc(-c3cnc(C)nc3)cc12 [Compound 447, (1R,3S,5R)-2-(2-(3-acetyl-7-methyl-5-(2-methylpyrimidin-5-yl)-1H-indazol-1-yl)acetyl)-N-(6-bromopyrazin-2-yl)-5-((3-methyl-1,2,4-oxadiazol-5-yl)methyl)-2-azabicyclo[3.1.0]hexane-3-carboxamide] | > 6.00 |
| CC(=O)c1cn(CC(=O)N2[C@H](C(=O)Nc3nc(OC(F)(F)F)ccc3C)C[C@@]3(C)C[C@@H]23)c2c(C)cc(-c3cnc(C)nc3)cc12 [Compound 448, (1R,3S,5R)-2-(2-(3-acetyl-7-methyl-5-(2-methylpyrimidin-5-yl)-1H-indo1-1-yl)acetyl)-5-methyl-N-(3-methyl-6-(trifluoromethoxy)pyridin-2-yl)-2-azabicyclo[3.1.0]hexane-3-carboxamide] | > 6.00 |
| CC(=O)c1nn(CC(=O)N2[C@H](C(=O)Nc3cccc(Oc4ccccn4)n3)C[C@@]3(C)C[C@@H]23)c2c(C)cc(-c3cnc(C)nc3)cc12 [Compound 449, (1R,3S,5R)-2-(2-(3-acetyl-7-methyl-5-(2-methylpyrimidin-5-yl)-1H-indazol-1-yl)acetyl)-5-methyl-N-(6-(pyridin-2-yloxy)pyridin-2-yl)-2-azabicyclo[3.1.0]hexane-3-carboxamide] | > 6.00 |
| CC(=O)c1nn(CC(=O)N2[C@H](C(=O)Nc3nc(-c4ccccn4)ccc3C)C[C@@]3(C)C[C@@H]23)c2ccc(-c3cnc(C)nc3)cc12 [Compound 450, (1R,3S,5R)-2-(2-(3-acetyl-5-(2-methylpyrimidin-5-yl)-1H-indazol-1-yl)acetyl)-5-methyl-N-(5-methyl-[2,2′-bipyridin]-6-yl)-2-azabicyclo[3.1.0]hexane-3-carboxamide] | 5.00 to 6.00 |
| CC(=O)c1nn(CC(=O)N2[C@H](C(=O)Nc3cccc(-n4ccccc4=O)n3)C[C@@]3(C)C[C@@H]23)c2c(C)cc(-c3cnc(C)nc3)cc12 [Compound 451, (1R,3S,5R)-2-(2-(3-acetyl-7-methyl-5-(2-methylpyrimidin-5-yl)-1H-indazol-1-yl)acetyl)-5-methyl-N-(2-oxo-2H-[1,2′-bipyridin]-6′-yl)-2-azabicyclo[3.1.0]hexane-3-carboxamide] | > 6.00 |
| CC(=O)c1nn(CC(=O)N2[C@H](C(=O)Nc3nc(Br)ccc3C)C[C@@]3(C)C[C@@H]23)c2ccc(-c3ccncc3)cc12 [Compound 452, (1R,3S,5R)-2-(2-(3-acetyl-5-(pyridin-4-yl)-1H-indazol-1-yl)acetyl)-N-(6-bromo-3-methylpyridin-2-yl)-5-methyl-2-azabicyclo[3.1.0]hexane-3-carboxamide] | > 6.00 |
| CC(=O)c1nn(CC(=O)N2[C@H](C(=O)Nc3nc(Br)ccc3C)C[C@@]3(C)C[C@@H]23)c2ccc(-c3ccc(C)cn3)cc12 [Compound 453, (1R,3S,5R)-2-(2-(3-acetyl-5-(5-methylpyridin-2-yl)-1H-indazol-1-yl)acetyl)-N-(6-bromo-3-methylpyridin-2-yl)-5-methyl-2-azabicyclo[3.1.0]hexane-3-carboxamide] | > 6.00 |
| CC(=O)c1nn(CC(=O)N2[C@H](C(=O)Nc3cc(C)cc(Br)n3)C[C@@]3(C)C[C@@H]23)c2c(C)cc(-c3cnc(C)nc3)cc12 [Compound 456, (1R,3S,5R)-2-(2-(3-acetyl-7-methyl-5-(2-methylpyrimidin-5-yl)-1H-indazol-1-yl)acetyl)-N-(6-bromo-4-methylpyridin-2-yl)-5-methyl-2-azabicyclo[3.1.0]hexane-3-carboxamide] | > 6.00 |
| CC(=O)c1cn(CC(=O)N2[C@H](C(=O)Nc3nc(Br)c(F)cc3C)C[C@@]3(C)C[C@@H]23)c2ccc(-c3cnc(C)nc3)cc12 [Compound 457, (1R,3S,5R)-2-(2-(3-acetyl-5-(2-methylpyrimidin-5-yl)-1H-indol-1-yl)acetyl)-N-(6-bromo-5-fluoro-3-methylpyridin-2-yl)-5 methyl-2-azabicyclo[3.1.0]hexane-3-carboxamide] | > 6.00 |
| CC(=O)c1nn(CC(=O)N2[C@H](C(=O)N[C@@H](CC(C)C)C(=O)O)C[C@@]3(C)C[C@@H]23)c2c(C)cc(-c3cnc(C)nc3)cc12 [Compound 458, ((1R,3S,5R)-2-(2-(3-acetyl-7-methyl-5-(2-methylpyrimidin-5-yl)-1H-indazol-1-yl)acetyl)-5-methyl-2-azabicyclo[3.1.0]hexane-3-carbonyl)-L-leucine] | > 6.00 |
| CC(=O)c1cn(CC(=O)N2[C@H](C(=O)Nc3nc(C(F)(F)F)ccc3C)C[C@@]3(C)C[C@@H]23)c2c(C)cc(-c3cnc(C)nc3)cc12 [Compound 459, (1R,3S,5R)-2-(2-(3-acetyl-7-methyl-5-(2-methylpyrimidin-5-yl)-1H-indol-1-yl)acetyl)-5-methyl-N-(3-methyl-6-(trifluoromethyl)pyridin-2-yl)-2-azabicyclo[3.1.0]hexane-3-carboxamide] | > 6.00 |
| CC(=O)c1nn(CC(=O)N2[C@H](C(=O)Nc3cccn(-c4ccccn4)c3=O)C[C@@]3(C)C[C@@H]23)c2c(C)cc(-c3cnc(C)nc3)cc12 [Compound 460, (1R,3S,5R)-2-{2-[3-Acetyl-7-methyl-5-(2-methylpyrimidin-5-yl)indazol-1-yl]acetyl}-5-methyl-N-{2-oxo-[1,2′-bipyridine]-3-yl}-2-azabicyclo[3.1.0]hexane-3-carboxamide] | > 6.00 |
| CC(=O)c1nn(CC(=O)N2[C@H](C(=O)Nc3cc(Br)ncc3F)C[C@@]3(C)C[C@@H]23)c2cnc(-c3cnc(C)nc3)cc12 [Compound 461, (1R,3S,5R)-2-(2-(3-acetyl-5-(2-methylpyrimidin-5-yl)-1H-pyrazolo[3,4-c]pyridin-1-yl)acetyl)-N-(2-bromo-5-fluoropyridin-4-yl)-5-methyl-2-azabicyclo[3.1.0]hexane-3-carboxamide] | 5.00 to 6.00 |
| CC(=O)c1nn(CC(=O)N2[C@H](C(=O)N[C@H](Cc3ccccc3)C(=O)O)C[C@@]3(C)C[C@@H]23)c2c(C)cc(-c3cnc(C)nc3)cc12 [Compound 462, ((1R,3S,5R)-2-(2-(3-acetyl-7-methyl-5-(2-methylpyrimidin-5-yl)-1H-indazol-1-yl)acetyl)-5-methyl-2-azabicyclo[3.1.0]hexane-3-carbonyl)-D-phenylalanine] | 5.00 to 6.00 |
| CC(=O)c1nn(CC(=O)N2[C@H](C(=O)N[C@H](CC(C)C)C(=O)O)C[C@@]3(C)C[C@@H]23)c2c(C)cc(-c3cnc(C)nc3)cc12 [Compound 464, ((1R,3S,5R)-2-(2-(3-acetyl-7-methyl-5-(2-methylpyrimidin-5-yl)-1H-indazol-1-yl)acetyl)-5-methyl-2-azabicyclo[3.1.0]hexane-3-carbonyl)-D-leucine] | 5.00 to 6.00 |
| Cc1ncc(-c2ccc3c(c2)c(C(=O)C(F)(F)F)cn3CC(=O)N2[C@H](C(=O)Nc3nc(Br)ccc3C)C[C@@]3(C)C[C@@H]23)cn1 [Compound 465, (1R,3S,5R)-N-(6-bromo-3-methylpyridin-2-yl)-5-methyl-2-(2-(5-(2-methylpyrimidin-5-yl)-3-(2,2,2-trifluoroacetyl)-1H-indol-1-yl)acetyl)-2-azabicyclo[3.1.0]hexane-3-carboxamide] | > 6.00 |
| CC(=O)c1nn(CC(=O)N2[C@H](C(=O)Nc3nc(Br)ccc3C)C[C@@]3(C)C[C@@H]23)c2cc(F)c(-c3cnc(C)nc3)cc12 [Compound 466, (1R,3S,5R)-2-(2-(3-acetyl-6-fluoro-5-(2-methylpyrimidin-5-yl)-1H-indazol-1-yl)acetyl)-N-(6-bromo-3-methylpyridin-2-yl)-5-methyl-2-azabicyclo[3.1.0]hexane-3-carboxamide] | > 6.00 |
| COC(=O)c1nn(CC(=O)N2[C@H](C(=O)Nc3nc(Br)ccc3C)C[C@@]3(C)C[C@@H]23)c2ccc(-c3cnc(C)nc3)cc12 [Compound 467, Methyl 1-{2-[(1R,3S,5R)-3-[(6-bromo-3-methylpyridin-2-yl)carbamoyl]-5-methyl-2-azabicyclo[3.1.0]hexan-2-yl]-2-oxoethyl}-5-(2-methylpyrimidin-5-yl)indazole-3-carboxylate] | > 6.00 |
| Cc1ncc(-c2ccc3c(c2)c(C(=O)O)nn3CC(=O)N2[C@H](C(=O)Nc3nc(Br)ccc3C)C[C@@]3(C)C[C@@H]23)cn1 [Compound 469, 1-{2-[(1R,3S,5R)-3-[(6-Bromo-3-methylpyridin-2-yl)carbamoyl]-5-methyl-2-azabicyclo[3.1.0]hexan-2-yl]-2-oxoethyl}-5-(2-methylpyrimidin-5-yl)indazole-3-carboxylic Acid] | < 5.00 |
| Cc1ncc(-c2cc3c(C(=O)C(F)(F)F)cn(CC(=O)N4[C@H](C(=O)Nc5nc(Br)ccc5C)C[C@@]5(C)C[C@@H]45)c3cn2)cn1 [Compound 470, (1R,3S,5R)-N-(6-bromo-3-methylpyridin-2-yl)-5-methyl-2-(2-(5-(2-methylpyrimidin-5-yl)-3-(2,2,2-trifluoroacetyl)-1H-pyrrolo[2,3-c]pyridin-1-yl)acetyl)-2-azabicyclo[3.1.0]hexane-3-carboxamide] | > 6.00 |
| CC(=O)c1cn(CC(=O)N2[C@H](C(=O)Nc3nc(Br)c(F)cc3C)C[C@@]3(C)C[C@@H]23)c2c(C)nc(-c3cnc(C)nc3)cc12 [Compound 471] | > 6.00 |

— patent US11084800B2 (Achillion Pharmaceuticals, Inc., priority 2017, dated 2021)
